{"source": "paper PMC10531095", "about": "“Photonics of Some Monomethine Cyanine Dyes in Solutions and in Complexes with Biomolecules” (International Journal of Molecular Sciences, 2023)", "origin": "cited, not measured here", "system": "ssDNA", "parameters": "method as in PMID 15249599", "conditions": "ssDNA vs. dsDNA ref 62; cited from earlier work"}
{"smiles": "CCCN(CCCN(C)C)c1cc(/C=C2/Sc3ccccc3N2C)c2ccccc2[n+]1-c1ccccc1", "note": "[SYBR Green I]", "values": [{"measurement": "fluorescence increase with ssDNA, times lower than with dsDNA", "result": "about 11 times"}]}
